This note sets out measurements from patent publication US20230286983A1 (4E Therapeutics, Inc., priority 2020, published 2023).

The test system of data set [1] is eIF4E phosphorylation at Serine 209 in the human embryonic kidney (HEK) 293 cell line. Description: eIF4E phosphorylation in HEK 293 cells (fluorescent plate reader). In kind it is cell-based. The settings on record: eIF4E phosphorylation at Serine 209, 2 hours exposure. As to the method:
The ability of MNK inhibitors described herein to inhibit eIF4E phosphorylation at Serine 209 in the human embryonic kidney (HEK) 293 cell line was tested by exposing the cells to compound for 2 hours and then measuring eIF4E phosphorylation with a phosphorylation-specific antibody in a fluorescent plate reader. These experiments were done with HEK-293 cells plated on 96 well plates. Following treatment, cells were fixed with ice cold methanol for 10 min and then washed in 1× phosphate buffered saline (PBS) and the permeabilized with 0.02% Triton X-100 in 10% normal goat serum made up in PBS. Primary antibody was applied overnight at a concentration dilution of 1:2000 (p-eIF4E antibody from Cell Signaling ab76256). Following washing, cells were then exposed to secondary antibody conjugated to alexa-fluor 488 and then visualized on a Syngergy HTX plate reader. Fluorescence for p-eIF4E was measured and normalized to total DAPI fluorescence to determine the percentage of eIF4E phosphorylation in each well. Data were plotted in Graphpad Prism V8 to determine concentration-response effects and calculate IC50 values.

For the next data set, the target named is MNK2 (Homo sapiens, UniProt Q9HBH9). Description: MNK2 substrate phosphorylation assay. The settings on record: recombinant human kinase. The data set is classed as biochemical.
MNK2, sequence (Q9HBH9 whole entry): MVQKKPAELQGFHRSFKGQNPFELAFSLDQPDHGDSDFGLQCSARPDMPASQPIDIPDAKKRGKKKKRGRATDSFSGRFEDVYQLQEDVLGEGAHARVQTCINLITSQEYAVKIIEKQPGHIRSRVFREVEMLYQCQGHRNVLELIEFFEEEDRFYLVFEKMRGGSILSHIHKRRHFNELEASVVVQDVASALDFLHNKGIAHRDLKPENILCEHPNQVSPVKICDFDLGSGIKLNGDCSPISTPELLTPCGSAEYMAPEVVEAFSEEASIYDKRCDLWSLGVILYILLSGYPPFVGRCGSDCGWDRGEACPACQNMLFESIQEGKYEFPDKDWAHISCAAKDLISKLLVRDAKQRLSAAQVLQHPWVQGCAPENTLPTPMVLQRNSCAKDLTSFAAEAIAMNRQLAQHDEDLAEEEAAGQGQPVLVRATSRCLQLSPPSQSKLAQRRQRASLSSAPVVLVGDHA
Data set [2] can be described thus: Liver microsome stability, mouse. In kind it is in vitro ADME. The settings on record: for half-life: mouse, liver microsomes. For orientation: Liver microsomes are vesicles of endoplasmic reticulum, rich in cytochrome P450 enzymes.
The subject of a further data set is MDCK-MDR1. Nature of the data set: MDCK-MDR1 permeability (blood brain barrier permeability). In kind it is in vitro ADME, Canine. Conditions: 5 μM; for Papp A-B: Apical to basolateral transport; for Papp A-B / Papp B-A: average of two experiments; for Papp B-A: Basolateral to apical transport.
Another data set deals with MNK1 (Homo sapiens, UniProt Q9BUB5). Description: MNK1 substrate phosphorylation assay. In kind it is biochemical. Conditions: recombinant human kinase.
MNK1, sequence (Q9BUB5 whole entry): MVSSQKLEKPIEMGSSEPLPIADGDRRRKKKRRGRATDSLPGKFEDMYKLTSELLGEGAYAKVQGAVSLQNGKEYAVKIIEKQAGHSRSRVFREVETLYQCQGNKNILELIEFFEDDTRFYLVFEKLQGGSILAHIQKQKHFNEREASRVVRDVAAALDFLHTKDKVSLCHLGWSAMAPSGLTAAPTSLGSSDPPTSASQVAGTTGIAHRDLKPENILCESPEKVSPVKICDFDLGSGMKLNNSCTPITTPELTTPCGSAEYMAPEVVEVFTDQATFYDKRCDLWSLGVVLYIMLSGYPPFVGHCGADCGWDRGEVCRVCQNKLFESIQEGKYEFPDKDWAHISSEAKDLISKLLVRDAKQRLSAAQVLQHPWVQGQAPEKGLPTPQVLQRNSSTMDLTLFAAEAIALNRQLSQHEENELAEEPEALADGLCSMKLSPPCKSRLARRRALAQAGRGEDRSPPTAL
The subject of another data set is P-gp (human MDR1, ABCB1). Description: MDCK-MDR1 permeability (blood brain barrier permeability). The data set is classed as in vitro ADME, Canine. The settings on record: dog; for Papp A→B at 5 μM: MDCK-MDR1, Apical to basolateral transport; for Papp A→B at 5 μM / Papp B→A at 5 μM: average of two experiments; for Papp B→A at 5 μM: MDCK-MDR1, Basolateral to apical transport; for efflux ratio at 5 μM: MDCK-MDR1, 5 μM, read-out: Efflux ratio (ratio B-A/A-B).

Data set [3] can be described thus: Liver microsome stability, human. In kind it is in vitro ADME. Conditions: liver microsomes.
[4] abbreviates: mouse liver microsomes, Table 11b.
The mark [5] stands for this setting: mouse liver microsomes, Table 11b, read-out: T1/2.

As for `Cc1cc(Nc2cc(NC(=O)C3CC3)ncn2)c(=O)n2c1C(=O)NC21C[C@H]2CNC[C@H]2C1` (single isomer, unassigned) [Compound 4ET-03-050B, N-(6-((8′-Methyl-1′,5′-dioxo-1′,2,3,3a,4,5′,6,6a-octahydro-1H,2′H-spiro[cyclopenta[c]pyrrole-5,3′-imidazo[1,5-a]pyridin]-6′-yl)amino)pyrimidin-4-yl)cyclopropanecarboxamide], in data set [1], the IC50 (commonly the concentration that gives 50% inhibition) turned out to be 150 nM. Further, at MNK2, the IC50 is 6.84 nM. In data set [2] (setting [4]), this compound returned a T1/2 of 424 min. Also, in the data set on MDCK-MDR1, the “Efflux ratio (ratio B-A/A-B)” value was 1.3, the “Papp A-B” value was determined as 7e-07 cm/s and the “Papp B-A” value was 9e-07 cm/s. Further, the IC50 at MNK1 was found to be 40.9 nM.

`Cc1cc(Nc2cc(NC(=O)C3CC3)ncn2)c(=O)n2c1C(=O)NC21Cc2ccccc2[C@@H]1F` (single isomer, unassigned) [Compound 4ET-03-052A, N-(6-((1′-Fluoro-8-methyl-1,5-dioxo-1,1′,3′,5-tetrahydro-2H-spiro[imidazo[1,5-a]pyridine-3,2′-inden]-6-yl)amino)pyrimidin-4-yl)cyclopropanecarboxamide]: the IC50 in data set [1] (Homo sapiens, HEK293, 2 h) was 19.2 nM; at MNK2 it was 0.5 nM; at MNK1, 4.71 nM. Moreover, the half-life in data set [2] (setting [5]) amounted to 110 min. Also, the Papp A→B (as a rule, the apparent permeability from the apical to the basolateral side of a cell layer) at 5 μM with P-gp (human MDR1, ABCB1) came to 12.1 ×10⁻⁶ cm/s. In addition, the Papp B→A – broadly, the apparent permeability from the basolateral to the apical side of a cell layer – at 5 μM with P-gp (human MDR1, ABCB1) is 80.6 ×10⁻⁶ cm/s. Besides, the “Efflux ratio (ratio B-A/A-B)” value in the data set with MDCK-MDR1 stood at 6.6.

As for `Cc1cc(Nc2cc(N)ncn2)c(=O)n2c1C(=O)NC21C[C@H]2COC[C@H]2C1` (single isomer, unassigned) [Compound 4ET-01-014A, 6′-((6-Aminopyrimidin-4-yl)amino)-8′-methyl-3a,4,6,6a-tetrahydro-1H,2′H,3H-spiro[cyclopenta[c]furan-5,3′-imidazo[1,5-a]pyridine]-1′,5′-dione], the results for the IC50 (in data set [1]; at MNK2; at MNK1) were 28.4 nM, 4 nM and 26 nM, respectively. Moreover, in data set [2] (setting [5]), the half-life worked out at 270 min. The efflux ratio at 5 μM with P-gp (human MDR1, ABCB1) worked out at 1.9. In addition, the “Papp A-B” value in the data set on MDCK-MDR1 turned out to be 2.49e-05 cm/s. Moreover, the “Papp B-A” value in the data set with MDCK-MDR1 was 4.64e-05 cm/s.

As to `Cc1cc(Nc2cc(NC(=O)CN3CCOCC3)ncn2)c(=O)n2c1C(=O)NC21CCCCC1` [Compound 4ET-02-007, N-(6-((8′-Methyl-1′,5′-dioxo-1′,5′-dihydro-2′H-spiro[cyclohexane-1,3′-imidazo[1,5-a]pyridin]-6′-yl)amino)pyrimidin-4-yl)-2-morpholinoacetamide], the IC50 at MNK2 came out at 3.6 nM; at MNK1 it was 89 nM. Further, the microsomal CLint stood at 8.7 µL/min/mg in data set [2] (Mouse liver microsomes (*), read-out: CLint rodent) and 6.42 µL/min/mg in data set [3]. The half-life in data set [2] (Mouse liver microsomes (*), Table 11a, read-out: Rodent liver microsomes t1/2) worked out at 159 min; in data set [3] (read-out: Human liver microsomes t1/2), 216 min. For the same compound, the efflux ratio at 5 μM in the data set on P-gp (human MDR1, ABCB1) turned out to be 5.6. In the data set with P-gp (human MDR1, ABCB1), this compound showed a Papp A→B at 5 μM of 7.3 ×10⁻⁶ cm/s. For the same compound, the Papp B→A at 5 μM in the data set on P-gp (human MDR1, ABCB1) came out at 40.8 ×10⁻⁶ cm/s.

In data set [1], `Cc1cc(Nc2cc(N)ncn2)c(=O)n2c1C(=O)NC21C[C@H]2COC[C@H]2C1` (single isomer, unassigned) [Compound 4ET-01-014B, 6′-((6-Aminopyrimidin-4-yl)amino)-8′-methyl-3a,4,6,6a-tetrahydro-1H,2′H,3H-spiro[cyclopenta[c]furan-5,3′-imidazo[1,5-a]pyridine]-1′,5′-dione] came in with an IC50 of 67.4 nM. Further, at MNK2, the IC50 was 4.6 nM. Also, in data set [2] (setting [4]), the T1/2 was found to be 430 min. For the same compound, in the data set with MDCK-MDR1, the “Efflux ratio (ratio B-A/A-B)” value is 2.4, the “Papp A-B” value stood at 2.4e-06 cm/s and the “Papp B-A” value amounted to 5.8e-06 cm/s. Moreover, on MNK1, the IC50 came to 24.5 nM.

`CC1=CC2(CCC1)NC(=O)c1c(C)cc(Nc3cc(N)ncn3)c(=O)n12` (stereo not drawn) [Compound 4ET-01-058, 6′-((6-Aminopyrimidin-4-yl)amino)-3,8′-dimethyl-2′H-spiro[cyclohexane-1,3′-imidazo[1,5-a]pyridin]-2-ene-1′,5′-dione]: the IC50 in data set [1] (Homo sapiens, HEK293, 2 h) was 10.9 nM; on MNK2, 6.5 nM; on MNK1, 58.4 nM. Also, the half-life in data set [2] (setting [5]) was determined as 460 min. The efflux ratio at 5 μM in the data set with P-gp (human MDR1, ABCB1) was 1.1. Besides, the Papp A→B at 5 μM in the data set with P-gp (human MDR1, ABCB1) is 57.8 ×10⁻⁶ cm/s. For the same compound, in the data set with P-gp (human MDR1, ABCB1), the Papp B→A at 5 μM turned out to be 61.2 ×10⁻⁶ cm/s.

In the case of `Cc1cc(Nc2cc(NC(=O)C3CC3)ncn2)c(=O)n2c1C(=O)NC21C[C@H]2CNC[C@H]2C1` (single isomer, unassigned) [Compound 4ET-03-050A, N-(6-((8′-Methyl-1′,5′-dioxo-1′,2,3,3a,4,5′,6,6a-octahydro-1H,2′H-spiro[cyclopenta[c]pyrrole-5,3′-imidazo[1,5-a]pyridin]-6′-yl)amino)pyrimidin-4-yl)cyclopropanecarboxamide], the IC50 was found to be 2.6 nM in data set [1], 1.32 nM on MNK2 and 35 nM at MNK1. Also, the T1/2 in data set [2] (setting [4]) is given as 72 min. For the same compound, in the data set with MDCK-MDR1, the “Efflux ratio (ratio B-A/A-B)” value was determined as 12.4. For the same compound, the “Papp A-B” value with MDCK-MDR1 came out at 2e-06 cm/s. Moreover, in the data set on MDCK-MDR1, the “Papp B-A” value was 2.45e-05 cm/s.
